Experimental data published in patent publication US20120157471A1, “BENZIMIDAZOLE DERIVATIVES” (PFIZER INC., priority 2009, published 2012).

What was measured:
[1] = target: T1, human Smo (amino acids 181-787) (Homo sapiens, UniProt Q99835); assay: Smo radioligand competition binding assay (displacement of 3H-PF-03451358 from HEK293 membranes); settings: for inhibition at 0.05 µM: 0.05 μM test compound, displacement of 3H-PF-03451358, read-out: SMO % inh. @ 0.05 μM; for IC50: radioligand competition binding
T1 construct: expressed in transfected cells; membrane preparation
Experimental: Membranes were prepared from a stable cell line created in HEK293FlpIn-TetR cells (Invitrogen) using FIp recombinase-mediated insertion of the pSecTag-FRT/V5-His vector containing a cDNA encoding amino acids 181-787 of human Smo fused to the murine lgk leader sequence to produce a cell surface expressed Smo 181-781 protein. Hygromycin-resistant clones were obtained and stained for LacZ expression (no expression indicates a correct knock-in of my fusion cDNA). LacZ-negative cells were analyzed for binding tritiated Smo antagonist PF-03451358. For membrane preparation, the HEK293 cells expressing Smo 181-781 were grown to 90% confluence in nine to fifteen 245 mm×245 mm×22 mm dishes, washed with Dulbecco's PBS (15 ml per dish) and harvested via scraping in 10 ml of DPBS. The cells were collected and centrifuged at 1500 rpm (400×g) for 10 min at 4° C. The cell pellets were re-suspended in 40 ml of cold DPBS and washed by centrifugation at 2300 rpm (950×g max) for 10 minutes at 4° C. The supernatant was aspirated and the cell pellet was snap frozen in a methanol/dry ice bath and stored at −70° C. For membrane preparation, 15 ml of Membrane Preparation Buffer (50 mM Tris-HCl pH 7.5, 250 mM sucrose with Roche complete protease cocktail tablets) is added to the tube containing the cell pellet, then cells are rapidly thawed, and homogenized using an Ultra-Turrax T8 (IKA Labortechnik) set on “6” for 15 seconds for 5-6 times in icy water bath. This homogenate was diluted up to 50 ml using Membrane Preparation Buffer and centrifuged at 35,000 rpm in a Beckman Ti45 rotor (140,000×g) for 35 minutes at 4° C. followed by aspiration of the supernatant and re-suspension of the pellet in 5 ml of Assay Buffer (50 mM Tris-HCl pH 7.5, 100 mM NaCl, 25 mM MgCl2, 1 mM EDTA, and 0.1% protease free bovine serum albumin). The re-suspended pellet is then homogenized in a glass tissue grinder. The re-suspended membranes are aliquoted (0.5 ml aliquots), snap frozen and stored at −70° C. Total protein in the membrane preparation is determined using the Pierce BCA protein assay (Pierce Chemical).
For the binding competition assay, 100 μl of Assay Buffer is added to all the wells of a 96 well GF/B filter plate (Millipore MultiScreen-HTS-FB cat# MSFBN6B50) for 10 minutes to pre-wet the filter prior to evacuation of the buffer (8 inches Hg for 8 seconds). To the pre-wet wells is added: 20 μl of Assay Buffer, 10 μl diluted test agent, 20 μl of ^3H-PF-3451358 (15 nM stock solution), and 50 μl of membrane preparation (40 μg total protein per well). The plates are sealed and mixed at room temperature for 5 min, incubated at room temperature for 2 hours, then washed 5 times with 100 μl/each of wash buffer and vacuum dried for 8 seconds at 8 inch Hg. The plate is then dried for one hour in a 60° C. oven prior to the addition of 45 μl of Microscint 20 (Packard, #6013621) to each well and incubation at RT for 30 minutes to 1 hour. The plate is counted in a TopCount scintillation counter (Perkin Elmer).
Data analysis uses Excel for % Inhibition and Graphpad Prism for IC50 calculation. Total binding (TB, in the absence of inhibitors)=average of ^3H PF-03451358 3 nM+SMO membrane (40 μg/wells (approx 5000-7000 CPM). Non-specific binding (NSB)=average of ^3H PF-03451358 (3 nM)+cold PF-03451358 (30 μM)+SMO membrane (approx 600-1200 CPM). Specific binding (SB)=(total binding−non-specific binding). % Inhibition=[1−(compound Specific binding/control Specific binding)]×100%. IC50 is calculated by fitting the data to the four parameter sigmoidal dose-response curve (variable slope) Y=Bottom+(Top-Bottom)/(1+10̂((LogEC50−X)*HillSlope)). X is the logarithm of the inhibitor concentration. Y is the response; Y starts at Bottom and goes to Top with a sigmoid shape.

[2] = tested on: Gli-Luc/MEF cells (Smo); assay: Gli-Luc/MEF assay (Shh-stimulated luciferase reporter under the Gli response element); assay type: cell-based, mouse; settings: Mus musculus, MEF, 48 h
Experimental: The Gli-Luc/MEF cells obtained from Gli-Luc transgenic mice (Pfizer CoE, Genetically Modified Mice) contain a luciferase reporter gene under the control of the Gli response element. Luciferase activity stimulated with Sonic hedgehog ligand was inhibited by Smo inhibitors, and IC50 was subsequently calculated.
Plates were incubated at 37° C. and 5% CO2 overnight. On day two, cells were dosed with test compounds at a final concentration ranging from […] to 50 μM at a 3-time series dilution. Immediately after dosing cells with compounds, recombinant mouse sonic hedgehog (Shh, R&D Systems 464-SH) was added to a final concentration of 2 μg/mL. The cells were incubated with compounds and Shh for 48 hours at 37° C. and 5% CO2. Luciferase assays were conducted on Day 4 using the Bright-Glo Luciferase assay system (Promega E2620) according to Promega's protocol. Briefly, Bright-Glo luciferase reagent was made up and 25 uL were added to each well of the 384-well plate containing media. Plates were kept at room temperature for 5 minutes, and then read on an Envision Luminescence plate reader (Perkin-Elmer). IC50 of the inhibition was calculated by using GraphPad Prism.

T1 sequence (Q99835 181-787): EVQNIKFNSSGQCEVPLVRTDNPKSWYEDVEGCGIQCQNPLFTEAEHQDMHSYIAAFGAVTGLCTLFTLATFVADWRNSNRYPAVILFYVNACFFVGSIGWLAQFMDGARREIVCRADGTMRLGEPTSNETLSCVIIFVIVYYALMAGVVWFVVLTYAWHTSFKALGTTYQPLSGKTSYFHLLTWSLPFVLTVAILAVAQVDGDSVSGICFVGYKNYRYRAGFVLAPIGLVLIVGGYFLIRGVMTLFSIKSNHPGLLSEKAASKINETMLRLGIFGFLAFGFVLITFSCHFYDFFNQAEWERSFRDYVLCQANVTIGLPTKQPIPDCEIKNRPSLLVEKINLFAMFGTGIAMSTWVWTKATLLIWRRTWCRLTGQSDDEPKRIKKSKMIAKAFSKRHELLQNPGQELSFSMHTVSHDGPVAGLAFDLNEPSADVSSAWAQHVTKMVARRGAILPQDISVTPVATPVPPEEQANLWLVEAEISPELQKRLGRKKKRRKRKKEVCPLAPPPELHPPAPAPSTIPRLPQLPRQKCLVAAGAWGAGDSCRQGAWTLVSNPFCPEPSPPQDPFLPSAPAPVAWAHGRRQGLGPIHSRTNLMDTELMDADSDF

Cc1nnc2n1CCN(c1cc(-c3nc4ccccc4n3C)c(Cl)cn1)CC2 [Example A-67, 7-[5-chloro-4-(1-methyl-1H-benzimidazol-2-yl)pyridin-2-yl]-3-methyl-6,7,8,9-tetrahydro-5H-[1,2,4]triazolo[4,3-d][1,4]diazepine]
inhibition at 0.05 µM [1]: 94% | IC50 [1]: 0.033 µM | IC50 [2]: 0.026 µM

CC(=O)N[C@H]1[C@@H]2CN(c3cc(-c4nc5ccccc5n4C)c(Cl)cn3)C[C@@H]21 [Example A-9, N-{(1R,5S,6S)-3-[5-chloro-4-(1-methyl-1H-benzimidazol-2-yl)pyridin-2-yl]-3-azabicyclo[3.1.0]hex-6-yl}acetamide]
inhibition at 0.05 µM [1]: 74% | IC50 [1]: 0.189 µM | IC50 [2]: 0.023 µM

Cn1c(-c2cc(N3CCN(S(=O)(=O)CC(C)(C)O)CC3)ncc2F)nc2ccccc21 [Example D-16, 1-({4-[5-fluoro-4-(1-methyl-1H-benzimidazol-2-yl)pyridin-2-yl]piperazin-1-yl}sulfonyl)-2-methylpropan-2-ol]
inhibition at 0.05 µM [1]: 94% | IC50 [1]: 0.009 µM | IC50 [2]: 0.003 µM

C[C@@H]1CN(c2cc(-c3nc4ccccc4n3C)c(Cl)cn2)CCN1 [Example A-157, 2-{5-chloro-2-[(3R)-3-methylpiperazin-1-yl]pyridin-4-yl}-1-methyl-1H-benzimidazole]
inhibition at 0.05 µM [1]: 95% | IC50 [1]: 0.035 µM | IC50 [2]: 0.024 µM

Cn1c(-c2cc(N3CCC(CS(C)(=O)=O)CC3)ncc2Cl)nc2cccnc21 [Example A-216, 2-(5-chloro-2-{4-[(methylsulfonyl)methyl]piperidin-1-yl}pyridin-4-yl)-3-methyl-3H-imidazo[4,5-b]pyridine]
inhibition at 0.05 µM [1]: 98% | IC50 [1]: 0.01 µM | IC50 [2]: 0.007 µM

C[C@@H]1CN(S(C)(=O)=O)CCN1c1cc(-c2nc3ccccc3n2C)c(Cl)cn1 [Example A-166, 2-{5-chloro-2-[(2R)-2-methyl-4-(methylsulfonyl)piperazin-1-yl]pyridin-4-yl}-1-methyl-1H-benzimidazole]
inhibition at 0.05 µM [1]: 102% | IC50 [2]: 0.004 µM

Cc1nc(CC2CN(c3cc(-c4nc5ccccc5n4C)c(Cl)cn3)CCO2)no1 (stereo not drawn) [Example A-52, 2-(5-chloro-2-{2-[(5-methyl-1,2,4-oxadiazol-3-yl)methyl]morpholin-4-yl}pyridin-4-yl)-1-methyl-1H-benzimidazole]
inhibition at 0.05 µM [1]: 99% | IC50 [1]: 0.013 µM | IC50 [2]: 0.013 µM

CNC(=O)COC1CCN(c2cc(-c3nc4ccccc4n3C)c(Cl)cn2)CC1 [Example A-84, 2-({1-[5-chloro-4-(1-methyl-1H-benzimidazol-2-yl)pyridin-2-yl]piperidin-4-yl}oxy)-N-methylacetamide]
inhibition at 0.05 µM [1]: 91% | IC50 [1]: 0.021 µM | IC50 [2]: 0.042 µM

Cn1c(-c2cc(N3C[C@](C)(CO)[C@](C)(CO)C3)ncc2Cl)nc2ccccc21 [Example A-108, {(3R,4S)-1-[5-chloro-4-(1-methyl-1H-benzimidazol-2-yl)pyridin-2-yl]-3,4-dimethylpyrrolidine-3,4-diyl}dimethanol]
inhibition at 0.05 µM [1]: 76% | IC50 [1]: 0.109 µM | IC50 [2]: 0.059 µM

COCCc1[nH]nc2c1CN(c1cc(-c3nc4ccccc4n3C)c(Cl)cn1)CC2 [Example A-99, 5-[5-chloro-4-(1-methyl-1H-benzimidazol-2-yl)pyridin-2-yl]-3-(2-methoxyethyl)-4,5,6,7-tetrahydro-1H-pyrazolo[4,3-c]pyridine]
inhibition at 0.05 µM [1]: 84% | IC50 [1]: 0.084 µM | IC50 [2]: 0.028 µM

C[C@H]1CN(c2cc(-c3nc4ccccc4n3C)c(Cl)cn2)CCN1S(C)(=O)=O [Example A-161, 2-{5-chloro-2-[(3S)-3-methyl-4-(methylsulfonyl)piperazin-1-yl]pyridin-4-yl}-1-methyl-1H-benzimidazole]
inhibition at 0.05 µM [1]: 98% | IC50 [1]: 0.009 µM | IC50 [2]: 0.003 µM

CC(=O)N1CCN(c2cc(-c3nc4ccccc4n3C)c(Cl)cn2)CC1 [Example A-1, 2-[2-(4-acetylpiperazin-1-yl)-5-chloropyridin-4-yl]-1-methyl-1H-benzimidazole]
inhibition at 0.05 µM [1]: 90% | IC50 [1]: 0.0152 µM | IC50 [2]: 0.004 µM

Cn1c(-c2cc(N3CC(O)C3)ncc2Cl)nc2ccccc21 [Example A-94, 1-[5-chloro-4-(1-methyl-1H-benzimidazol-2-yl)pyridin-2-yl]azetidin-3-ol]
inhibition at 0.05 µM [1]: 87% | IC50 [1]: 0.087 µM | IC50 [2]: 0.046 µM

CC1CC2(CCN1c1cc(-c3nc4ccccc4n3C)c(Cl)cn1)CNC(=O)C2 (stereo in doubt) [Example A-48, (5R,7S)-8-[5-chloro-4-(1-methyl-1H-benzimidazol-2-yl)pyridin-2-yl]-7-methyl-2,8-diazaspiro[4.5]decan-3-one]
inhibition at 0.05 µM [1]: 100% | IC50 [1]: 0.007 µM | IC50 [2]: 0.007 µM

Cn1c(-c2nc(N3CCN(C(=O)CO)CC3)ncc2Cl)nc2ccccc21 [Example C-18, 2-{4-[5-chloro-4-(1-methyl-1H-benzimidazol-2-yl)pyrimidin-2-yl]piperazin-1-yl}-2-oxoethanol]
inhibition at 0.05 µM [1]: 98% | IC50 [1]: 0.015 µM | IC50 [2]: 0.036 µM

Cn1c(-c2ccnc(N3CCC(O)CC3)c2)nc2ccccc21 [Example A-18, 1-[4-(1-methyl-1H-benzimidazol-2-yl)pyridin-2-yl]piperidin-4-ol]
inhibition at 0.05 µM [1]: 79% | IC50 [1]: 0.075 µM | IC50 [2]: 0.115 µM

Cn1c(-c2nc(N3CCOCC3)ncc2Cl)nc2ccccc21 [Example C-12, 2-(5-chloro-2-morpholin-4-ylpyrimidin-4-yl)-1-methyl-1H-benzimidazole]
inhibition at 0.05 µM [1]: 93% | IC50 [1]: 0.047 µM | IC50 [2]: 0.06 µM

COC(=O)N1CCCN(c2cc(-c3nc4ccccc4n3C)ccn2)CC1 [Example A-156, methyl 4-[4-(1-methyl-1H-benzimidazol-2-yl)pyridin-2-yl]-1,4-diazepane-1-carboxylate]
inhibition at 0.05 µM [1]: 95% | IC50 [1]: 0.023 µM | IC50 [2]: 0.011 µM

Cn1c(-c2nc(N3CCN(C(=O)CCO)CC3)ncc2Cl)nc2ccccc21 [Example C-17, 3-{4-[5-chloro-4-(1-methyl-1H-benzimidazol-2-yl)pyrimidin-2-yl]piperazin-1-yl}-3-oxopropan-1-ol]
inhibition at 0.05 µM [1]: 98% | IC50 [2]: 0.0172 µM

Cn1c(-c2cc(N3CCC(N4CCC(O)CC4)CC3)ncc2Cl)nc2ccccc21 [Example A-119, 1′-[5-chloro-4-(1-methyl-1H-benzimidazol-2-yl)pyridin-2-yl]-1,4′-bipiperidin-4-ol]
inhibition at 0.05 µM [1]: 64% | IC50 [2]: 0.111 µM
